According to US9688695B2, “Imidazothiadiazole and imidazopyrazine derivatives as protease activated receptor 4 (PAR4) inhibitors for treating platelet aggregation” (BRISTOL-MYERS SQUIBB COMPANY, priority 2012, dated 2017):

Each compound was assayed against PAR4 (Homo sapiens (Human), UniProt Q96RI0) (assay: FLIPR assay in PAR4-expressing HEK293 cells (PAR4 antagonist activity, calcium mobilization)). Settings: H-Ala-Phe(4-F)-Pro-Gly-Trp-Leu-Val-Lys-Asn-Gly-NH2-induced calcium mobilization.
Format: cell-based
From the text: The FLIPR assay is an exemplary in vitro assay for measuring the activity of the PAR4 antagonists of the present invention. In this assay, intracellular calcium mobilization is induced in PAR4 expressing cells by a PAR4 agonist and calcium mobilization is monitored. See, e.g., Example A.
HEK293 cells stably expressing PAR4 were generated by a standard method of transfection of human […] cDNA expression vector or by RAGE technology from Athersys Inc. (Cleveland, Ohio) and selected based on PAR4 protein expression of mRNA expression. […] These cells express endogenous PAR1 and can elicit calcium signal upon stimulation with PAR1 agonist peptide.
Counter screens for agonist activity and PAR1 antagonist activity were also performed. Briefly, HEK293 EBNA PAR4 clone 20664.1J cells were plated 24 hrs. prior to experiment in 384 well, Poly-D-Lysine coated, black, clear bottom plates (Greiner Bio-One, Monroe, N.C.). Cells were plated at 20,000 cells/well in […] growth medium and incubated at 37° C. with 5% CO2 overnight. At time of assay, media was replaced with 40 μl 1× Hank's Buffered Saline Solution (HBSS) (with 10 mM HEPES) and 20 μl test compound also diluted in 1×HBSS buffer was added at various concentrations and 0.67% DMSO final concentration on the FDSS for agonist measurement. The cells were then incubated for 30 minutes at room temperature followed by addition of 20 μl of agonist peptide for antagonist measurement on the FDSS.
As indicated above, the FLIPR assay, an in vitro assay, measures the PAR4 antagonist activity of compounds tested as described in Example A. The PRP assay, an in vitro assay, measures the PAR4 antagonist assay of the compounds tested in the presence of plasma proteins and thrombin agonist as described in Example C.

PAR4, sequence (Q96RI0 18-385): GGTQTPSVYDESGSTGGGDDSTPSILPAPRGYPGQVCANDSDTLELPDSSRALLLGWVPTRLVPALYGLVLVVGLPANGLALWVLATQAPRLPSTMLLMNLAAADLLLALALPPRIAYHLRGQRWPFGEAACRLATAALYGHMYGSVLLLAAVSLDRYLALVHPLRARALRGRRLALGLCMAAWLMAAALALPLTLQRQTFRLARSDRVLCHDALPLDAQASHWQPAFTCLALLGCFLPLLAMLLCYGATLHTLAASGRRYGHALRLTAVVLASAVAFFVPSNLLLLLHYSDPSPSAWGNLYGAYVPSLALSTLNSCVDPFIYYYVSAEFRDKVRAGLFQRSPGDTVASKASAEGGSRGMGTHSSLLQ

Structure (SMILES) | EC50 [pM]
COc1cc(OCc2csc(-c3ccc(F)nc3)n2)c2cc(-c3cn4nc(C)ccc4n3)oc2c1 [Example 228] | 180
COc1cc(OCc2csc(C3(c4ccc(C)cc4)CCOCC3)n2)c2cc(-c3cn4nc(C)ccc4n3)oc2c1 [Example 242] | 590
COc1cc(OCc2csc(N3CCSCC3)n2)c2cc(-c3cn4nc(C)ccc4n3)oc2c1 [Example 258] | 810
COc1cc(OCc2nc(-c3ccc(C(=O)OC(C)(C)C)cc3)sc2C)c2cc(-c3cn4nc(OC)sc4n3)oc2c1 [Example 45, tert-Butyl 4-(4-(((6-methoxy-2-(2-methoxyimidazo[2,1-b][1,3,4]thiadiazol-6-yl)benzofuran-4-yl)oxy)methyl)-5-methylthiazol-2-yl)benzoate] | 1300
COc1cc(OCc2csc(N3CCN(C)CC3)n2)c2cc(-c3cn4nc(C)ccc4n3)oc2c1 [Example 207, 4-(((6-Methoxy-2-(6-methylimidazo[1,2-b]pyridazin-2-yl)benzofuran-4-yl)oxy)methyl)-2-(4-methylpiperazin-1-yl)thiazole] | 7700
COc1cc(OCc2csc(N3CCC(N(C)C)CC3)n2)c2cc(-c3cn4nc(C)ccc4n3)oc2c1 [Example 252] | 871000
COc1cc(OCc2nc(-c3ccnc(F)c3)sc2C(C)C)c2cc(-c3cn4nc(OC)sc4n3)oc2c1 [Example 43, 6-(4-((2-(2-Fluoropyridin-4-yl)-5-isopropylthiazol-4-yl)methoxy)-6-methoxybenzofuran-2-yl)-2-methoxyimidazo[2,1-b][1,3,4]thiadiazole] | 340
COc1cc(OCc2csc(Nc3cccc(C#N)c3)n2)c2cc(-c3cn4nc(C)ccc4n3)oc2c1 [Example 260] | 7000
COc1nn2cc(-c3cc4c(OCc5csc(-c6ccc(C(=O)N(C)C)cc6)n5)cc(F)cc4o3)nc2s1 [Example 185, 4-(4-(((6-Fluoro-2-(2-methoxyimidazo[2,1-b][1,3,4]thiadiazol-6-yl)benzofuran-4-yl)oxy)methyl)thiazol-2-yl)-N,N-dimethylbenzamide] | 410
COc1cc(OCc2csc(C3(c4cccc(Cl)c4)CCOCC3)n2)c2cc(-c3cn4nc(C)ccc4n3)oc2c1 [Example 240] | 6900
COc1cc(OCc2csc(-c3ccc(C(=O)N(C)C)cc3)n2)c2cc(-c3cn4nc([C@H](C)F)sc4n3)oc2c1 [Example 194, (S)-4-(4-(((2-(2-(1-Fluoroethyl)imidazo[2,1-b][1,3,4]thiadiazol-6-yl)-6-methoxybenzofuran-4-yl)oxy)methyl)thiazol-2-yl)-N,N-dimethylbenzamide] | 1600
COc1cc(OCc2nc(-c3ccc(C(=O)N(C)C)cc3)sc2C)c2cc(-c3cn4nc(C)ccc4n3)oc2c1 [Example 225] | 540
COc1nn2cc(-c3cc4c(OCc5csc(-c6ccc(C(=O)NCC(F)(F)F)cc6)n5)cc(F)cc4o3)nc2s1 [Example 181, 4-(4-(((6-Fluoro-2-(2-methoxyimidazo[2,1-b][1,3,4]thiadiazol-6-yl)benzofuran-4-yl)oxy)methyl)thiazol-2-yl)-N-(2,2,2-trifluoroethyl)benzamide] | 720
COc1nn2cc(-c3cc4c(OCc5csc(-c6ccccc6)n5)cccc4o3)nc2s1 [Example 191, 2-Methoxy-6-(4-((2-phenylthiazol-4-yl)methoxy)benzofuran-2-yl)imidazo[2,1-b][1,3,4]thiadiazole] | 2600
COc1cc(OCc2csc(N3CCC(F)CC3)n2)c2cc(-c3cn4nc(C)ccc4n3)oc2c1 [Example 272] | 2000

The next lines start with the values.

EC50 [pM] | Structure (SMILES)
1400 | COc1cc(OCc2csc(C(C)(C)c3ccccc3)n2)c2cc(-c3cn4nc(OC)sc4n3)oc2c1 [Example 175, 2-Methoxy-6-(6-methoxy-4-((2-(2-phenylpropan-2-yl)thiazol-4-yl)methoxy)benzofuran-2-yl)imidazo[2,1-b][1,3,4]thiadiazole]
260 | COc1cc(OCc2csc(C(O)(C3CC3)C3CC3)n2)c2cc(-c3cn4nc(OC)sc4n3)oc2c1 [Example 144]
470 | COc1nn2cc(-c3cc4c(OCc5csc(C6(F)CCOCC6)n5)cc(Cl)cc4o3)nc2s1 [Example 190]
1600 | COc1cc(OCc2csc(-c3ccc(Cl)cc3)n2)c2cc(-c3cn4nc(OC)sc4n3)oc2c1 [Example 27]
860 | COc1cc(OCc2csc(C3CCN(S(=O)(=O)C(C)C)CC3)n2)c2cc(-c3cn4nc(OC)sc4n3)oc2c1 [Example 111, 6-(4-((2-(1-(Isopropylsulfonyl)piperidin-4-yl)thiazol-4-yl)methoxy)-6-methoxybenzofuran-2-yl)-2-methoxyimidazo[2,1-b][1,3,4]thiadiazole]
670 | COc1cc(OCc2csc(C3(c4ccccc4)CCOCC3)n2)c2cc(-c3cn4nc(OC)sc4n3)oc2c1 [Example 162, 2-Methoxy-6-(6-methoxy-4-((2-(4-phenyltetrahydro-2H-pyran-4-yl)thiazol-4-yl)methoxy)benzofuran-2-yl)imidazo[2,1-b][1,3,4]thiadiazole]
500 | COc1cc(OCc2csc(C3(O)CCOC3)n2)c2cc(-c3cn4nc(OC)sc4n3)oc2c1 (centres unmarked) [Example 123, 3-(4-(((6-Methoxy-2-(2-methoxyimidazo[2,1-b][1,3,4]thiadiazol-6-yl)benzofuran-4-yl)oxy)methyl)thiazol-2-yl)tetrahydrofuran-3-ol]
590 | COc1cc(OCc2csc(N3CCC(F)(F)CC3)n2)c2cc(-c3cn4nc(OC)sc4n3)oc2c1 [Example 31]
720 | COc1cc(OCc2csc(C3(F)CCOCC3)n2)c2cc(-c3cn4nc(OC)sc4n3)oc2c1 [Example 119, 6-(4-((2-(4-Fluorotetrahydro-2H-pyran-4-yl)thiazol-4-yl)methoxy)-6-methoxybenzofuran-2-yl)-2-methoxyimidazo[2,1-b][1,3,4]thiadiazole]
490 | COc1cc(OCc2csc(-c3ccc(COC(C)=O)cc3)n2)c2cc(-c3cn4nc(OC)sc4n3)oc2c1 [Example 68]
970 | COc1cc(OCc2csc(C3(c4ccccc4F)CCOC3)n2)c2cc(-c3cn4nc(OC)sc4n3)oc2c1 (centres unmarked) [Example 166, 6-(4-((2-(3-(2-Fluorophenyl)tetrahydrofuran-3-yl)thiazol-4-yl)methoxy)-6-methoxybenzofuran-2-yl)-2-methoxyimidazo[2,1-b][1,3,4]thiadiazole]
440 | COc1cc(OCc2csc(-c3ccc(C(=O)N4CCC(C)CC4)cc3)n2)c2cc(-c3cn4nc(OC)sc4n3)oc2c1 [Example 302]
840 | COc1cc(OCc2csc(N3CCN(C(=O)OC(C)(C)C)CC3)n2)c2cc(-c3cn4nc(OC)sc4n3)oc2c1 [Example 99, tert-Butyl 4-(4-(((6-methoxy-2-(2-methoxyimidazo[2,1-b][1,3,4]thiadiazol-6-yl)benzofuran-4-yl)oxy)methyl)thiazol-2-yl)piperazine-1-carboxylate]
1900 | COc1cc(OCc2nc(C3(F)CCOCC3)sc2C(F)(F)F)c2cc(-c3cn4nc(OC)sc4n3)oc2c1 [Example 132, 6-(4-((2-(4-Fluorotetrahydro-2H-pyran-4-yl)-5-(trifluoromethyl)thiazol-4-yl)methoxy)-6-methoxybenzofuran-2-yl)-2-methoxyimidazo[2,1-b][1,3,4]thiadiazole]
540 | CCCN(CC)C(=O)c1ccc(-c2nc(COc3cc(OC)cc4oc(-c5cn6nc(OC)sc6n5)cc34)cs2)cc1 [Example 309]
910 | COc1cc(OCc2csc(N3CCOCC3)n2)c2cc(-c3cn4nc([C@H](C)F)sc4n3)oc2c1 [Example 193, (S)-4-(4-(((2-(2-(1-Fluoroethyl)imidazo[2,1-b][1,3,4]thiadiazol-6-yl)-6-methoxybenzofuran-4-yl)oxy)methyl)thiazol-2-yl)morpholine]
690 | COc1cc(OCc2nc(N3CCOCC3)sc2CO)c2cc(-c3cn4nc(OC)sc4n3)oc2c1 [Example 89, (4-(((6-Methoxy-2-(2-methoxyimidazo[2,1-b][1,3,4]thiadiazol-6-yl)benzofuran-4-yl)oxy)methyl)-2-morpholinothiazol-5-yl)methanol]
1300 | COc1cc(OCc2csc(C(C)(C)c3ccc(Cl)cc3)n2)c2cc(-c3cn4nc(OC)sc4n3)oc2c1 [Example 176, 6-(4-((2-(2-(4-Chlorophenyl)propan-2-yl)thiazol-4-yl)methoxy)-6-methoxybenzofuran-2-yl)-2-methoxyimidazo[2,1-b][1,3,4]thiadiazole]
1300 | COc1cc(OCc2csc(-c3ccc(C(=O)NC4CC4)cc3)n2)c2cc(-c3cn4nc(OC)sc4n3)oc2c1 [Example 315]
720 | COc1cc(OCc2csc(C3CCSCC3)n2)c2cc(-c3cn4nc(C)ccc4n3)oc2c1 [Example 204, 4-(((6-Methoxy-2-(6-methylimidazo[1,2-b]pyridazin-2-yl)benzofuran-4-yl)oxy)methyl)-2-(tetrahydro-2H-thiopyran-4-yl)thiazole]
